Assay results as given in PubChem BioAssay AID248 (DTP/NCI, 2004).
Several values for one entry are separate records, joined by “and”; a condition that tells them apart may be missing. Equal values may be shown once. Toxic doses and inconclusive results are not listed. Cut-off read from the data, not from the text of the source: active = T/C of 150% or more; inactive = T/C below 125%.

System: L1210 leukemia ip in BDF1 mice, survival T/C
Test: NCI In Vivo Anticancer Drug Screen. Data for tumor model L1210 Leukemia (intraperitoneal) in B6D2F1 (BDF1) mice
Conditions: endpoint: mean survival time, higher = longer survival
Procedure, shortened: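 Transplantable tumor model; survival measured in treated vs vehicle control mice. Value = treated/control.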

[1] = dose: 100.0 mg/kg/injection, schedule: Q04DX002 (ip), vehicle: Klucel (hydroxypropylcellulose) (HPC)
[2] = dose: 200.0 mg/kg/injection, schedule: Q04DX002 (ip), vehicle: Klucel (hydroxypropylcellulose) (HPC)
[3] = dose: 400.0 mg/kg/injection, schedule: Q04DX002 (ip), vehicle: Klucel (hydroxypropylcellulose) (HPC)
[4] = dose: 100.0 mg/kg/injection, schedule: Q01DX001 (ip), vehicle: saline with Tween-80
[5] = dose: 200.0 mg/kg/injection, schedule: Q01DX001 (ip), vehicle: saline with Tween-80
[6] = dose: 400.0 mg/kg/injection, schedule: Q01DX001 (ip), vehicle: saline with Tween-80
[7] = dose: 100.0 mg/kg/injection, schedule: Q04DX003 (ip), vehicle: Klucel (hydroxypropylcellulose) (HPC)
[8] = dose: 100.0 mg/kg/injection, schedule: Q01DX009 (ip), vehicle: saline with Tween-80
[9] = dose: 100.0 mg/kg/injection, schedule: Q01DX009 (ip), vehicle: Klucel (hydroxypropylcellulose) (HPC)
[10] = dose: 100.0 mg/kg/injection, schedule: Q04DX003 (ip), vehicle: saline with Tween-80
[11] = dose: 200.0 mg/kg/injection, schedule: Q04DX003 (ip), vehicle: saline with Tween-80
[12] = dose: 400.0 mg/kg/injection, schedule: Q04DX003 (ip), vehicle: saline with Tween-80
[13] = dose: 12.5 mg/kg/injection, schedule: Q01DX009 (ip), vehicle: saline

Measured: T/C

CC1(C)CC(=O)C2=C(C1)Nc1ccc(Cl)cc1NC2c1ccccc1 (stereo not drawn)
inactive: dose: 25.0 mg/kg/injection, schedule: Q04DX002 (ip), vehicle: Klucel (hydroxypropylcellulose) (HPC) 92 % of control | dose: 50.0 mg/kg/injection, schedule: Q04DX002 (ip), vehicle: Klucel (hydroxypropylcellulose) (HPC) 106 % of control | [1] 92 % of control | [2] 103 % of control and 113 % of control | [3] 106 % of control

CCCCc1cccc(N2C(N)=NC(N)=NC2(C)C)c1
inactive: dose: 12.5 mg/kg/injection, schedule: Q01DX001 (ip), vehicle: saline 103 % of control | dose: 50.0 mg/kg/injection, schedule: Q01DX001 (ip), vehicle: saline 89 % of control

Nc1ncnc(N)c1NC(=O)c1cccc(-c2ccccc2)c1
inactive: [4] 97 % of control | [5] 101 % of control | [6] 90 % of control

CC(C)CNC(=O)Nc1ccccc1
inactive: dose: 75.0 mg/kg/injection, schedule: Q01DX001 (ip), vehicle: saline 97 % of control | dose: 150.0 mg/kg/injection, schedule: Q01DX001 (ip), vehicle: saline 95 % of control

C[N+]1=C(/C=C\c2ccc3cccnc3c2O)C(C)(C)c2cc(F)ccc21
inactive: dose: 100.0 mg/kg/injection, schedule: Q01DX001 (ip), vehicle: carboxymethylcellulose (CMC) 93 % of control | dose: 200.0 mg/kg/injection, schedule: Q01DX001 (ip), vehicle: carboxymethylcellulose (CMC) 95 % of control | dose: 400.0 mg/kg/injection, schedule: Q01DX001 (ip), vehicle: carboxymethylcellulose (CMC) 88 % of control

COC1OC(COS(C)(=O)=O)C(OS(C)(=O)=O)C(OC(=O)c2ccccc2)C1OC(=O)c1ccccc1 (stereo not drawn)
inactive: [1] 109 % of control | [2] 101 % of control | [3] 101 % of control

COc1ccccc1OCCOCCNC1C(C)CCCC1(C)C (stereo not drawn)
inactive: dose: 12.5 mg/kg/injection, schedule: Q04DX003 (ip), vehicle: Klucel (hydroxypropylcellulose) (HPC) 100 % of control | dose: 25.0 mg/kg/injection, schedule: Q04DX003 (ip), vehicle: Klucel (hydroxypropylcellulose) (HPC) 94 % of control | dose: 50.0 mg/kg/injection, schedule: Q04DX003 (ip), vehicle: Klucel (hydroxypropylcellulose) (HPC) 93 % of control | [7] 90 % of control

COc1cc(/C=N/NC(=O)c2cc(OC)c(OC)c(OC)c2)ccc1O
inactive: [8] 93 % of control | dose: 200.0 mg/kg/injection, schedule: Q01DX009 (ip), vehicle: saline with Tween-80 93 % of control | dose: 400.0 mg/kg/injection, schedule: Q01DX009 (ip), vehicle: saline with Tween-80 90 % of control

COc1ccc(/C=C2\SC(=O)NC2=O)cc1
inactive: dose: 25.0 mg/kg/injection, schedule: Q01DX009 (ip), vehicle: saline with Tween-80 91 % of control | dose: 50.0 mg/kg/injection, schedule: Q01DX009 (ip), vehicle: saline with Tween-80 104 % of control | [8] 100 % of control

Brc1cccc2ccccc12
inactive: dose: 25.0 mg/kg/injection, schedule: Q01DX009 (ip), vehicle: Klucel (hydroxypropylcellulose) (HPC) 89 % of control | dose: 50.0 mg/kg/injection, schedule: Q01DX009 (ip), vehicle: Klucel (hydroxypropylcellulose) (HPC) 86 % of control | [9] 99 % of control | [1] 112 % of control | [2] 105 % of control | [3] 119 % of control

O=[N+]([O-])c1cc(Br)c2c(c1)CCN2
inactive: dose: 12.5 mg/kg/injection, schedule: Q01DX005 (ip), vehicle: other 100 % of control | dose: 25.0 mg/kg/injection, schedule: Q01DX005 (ip), vehicle: other 102 % of control | dose: 50.0 mg/kg/injection, schedule: Q01DX005 (ip), vehicle: other 100 % of control | dose: 100.0 mg/kg/injection, schedule: Q01DX005 (ip), vehicle: other 105 % of control | dose: 200.0 mg/kg/injection, schedule: Q01DX005 (ip), vehicle: other 102 % of control

O=C1C2CCC(C2)C1Cl (stereo not drawn)
inactive: dose: 62.5 mg/kg/injection, schedule: Q04DX003 (ip), vehicle: saline with Tween-80 95 % of control | [10] 95 % of control | dose: 125.0 mg/kg/injection, schedule: Q04DX003 (ip), vehicle: saline with Tween-80 103 % of control | [11] 97 % of control | dose: 250.0 mg/kg/injection, schedule: Q04DX003 (ip), vehicle: saline with Tween-80 104 % of control | [12] 100 % of control

Cc1cc(C)c(N(CC(=O)O)S(=O)(=O)c2ccccc2)c(C)c1I
inactive: dose: 75.0 mg/kg/injection, schedule: Q04DX003 (ip), vehicle: Klucel (hydroxypropylcellulose) (HPC) 94 % of control

O=S(=O)(n1ccnc1)C(F)(F)F
inactive: dose: 5.0 mg/kg/injection, schedule: Q01DX001 (ip), vehicle: saline 102 % of control | dose: 10.0 mg/kg/injection, schedule: Q01DX001 (ip), vehicle: saline 98 % of control | dose: 20.0 mg/kg/injection, schedule: Q01DX001 (ip), vehicle: saline 102 % of control | dose: 40.0 mg/kg/injection, schedule: Q01DX001 (ip), vehicle: saline 102 % of control

O=C(Nc1ccccc1F)Oc1ccc2ccccc2c1
inactive: [9] 106 % of control | dose: 200.0 mg/kg/injection, schedule: Q01DX009 (ip), vehicle: Klucel (hydroxypropylcellulose) (HPC) 107 % of control | dose: 400.0 mg/kg/injection, schedule: Q01DX009 (ip), vehicle: Klucel (hydroxypropylcellulose) (HPC) 103 % of control

CC1CC(C)(C)N=C(C(C)C)O1 (stereo not drawn)
inactive: [13] 100 % of control | dose: 25.0 mg/kg/injection, schedule: Q01DX009 (ip), vehicle: saline 102 % of control | dose: 50.0 mg/kg/injection, schedule: Q01DX009 (ip), vehicle: saline 98 % of control | dose: 50.0 mg/kg/injection, schedule: Q04DX003 (ip), vehicle: saline with Tween-80 95 % of control | dose: 100.0 mg/kg/injection, schedule: Q01DX009 (ip), vehicle: saline 110 % of control | [10] 93 % of control

O=S(=O)(N/C(=C(\NS(=O)(=O)c1ccccc1)c1ccccc1)c1ccccc1)c1ccccc1
inactive: [7] 97 % of control | dose: 200.0 mg/kg/injection, schedule: Q04DX003 (ip), vehicle: Klucel (hydroxypropylcellulose) (HPC) 95 % of control | dose: 400.0 mg/kg/injection, schedule: Q04DX003 (ip), vehicle: Klucel (hydroxypropylcellulose) (HPC) 92 % of control

CCCCCCCCCCCCCSc1ccc(Br)cc1
inactive: [10] 96 % of control | [11] 96 % of control | [12] 96 % of control

CN(C)C(=N)[Se]
inactive: dose: 6.25 mg/kg/injection, schedule: Q01DX009 (ip), vehicle: saline 97 % of control | [13] 92 % of control

COC(=O)NS(=O)(=O)c1cccs1
inactive: dose: 100.0 mg/kg/injection, schedule: Q04DX002 (ip), vehicle: other 98 % of control | dose: 200.0 mg/kg/injection, schedule: Q04DX002 (ip), vehicle: other 94 % of control | dose: 400.0 mg/kg/injection, schedule: Q04DX002 (ip), vehicle: other 102 % of control

O=C1c2c(c(-c3ccccc3)c3ccccc3c2-c2ccccc2)C(c2ccccc2)c2c1c(-c1ccccc1)c1ccccc1c2-c1ccccc1
inactive: [4] 111 % of control | [5] 97 % of control | [6] 90 % of control
